Results on one molecule are retold here after article PMC3610419, “A Randomized, Double-Blind Placebo Controlled Trial of Balapiravir, a Polymerase Inhibitor, in Adult Dengue Patients” (The Journal of Infectious Diseases, 2012).

Test [1] relates to DENV-1. The experiment in a line: Inhibition of DENV replication in Huh-7 cells, viral RNA by quantitative real time PCR. Format: cell-based, dengue virus. To be noted: Dengue virus, DENV1, Huh-7, 48 h, mean ± SD of 3 experiments. As for the experimental part: (§1) ^a Each experiment was done in duplicate. The mean and standard deviation shown represent 3 independent (different date) experiments for each virus tested. Huh-7 cells were plated in 96-well plate at 10,000 cells/well in DMEM containing 10 % FBS in 100 μl volume one day prior to set up of the assay. The following day the medium was aspirated off and diluted virus at a multiplicity of infection of 0.5 or media was added to the assay and control wells, respectively. The virus was allowed to attach to the cells for two hours at 37°C in a humidified 5% C02 atmosphere while the dilutions of the test molecule were prepared. Test molecules (or medium as a control) were added after aspiration of the virus-containing media 2 hours post-infection in 3-fold dilutions at a final DMSO concentration of 1%. After 48 hrs, cells were washed and cellular RNA were isolated. In this study, we used a quantitative real time PCR method to quantitate dengue viral RNA in Huh-7 in the presence of inhibitors. Viral RNA and endogenous 18S rRNA control (Applied Bio System) was quantified by a real time PCR assay using the following primers. Dengue Reverse (Common to all the serotypes): 5’-[…]-3’, Dengue forward serotype 1: 5’-[…]-3’, Dengue forward serotype 2 or 3: 5’-[…]-3’, Dengue forward serotype 4: 5’-[…] -3’ and Dengue probe (Common to all the serotypes): 5'-/56-FAM/[…]/3BHQ_1/-3'. Taqman was performed in duplicate. IC50 was obtained using the following calculations. First ΔCt was calculated by subtracting 18S rRNA CT value from dengue RNA CT value. ΔCts from duplicate taqman assay were averaged. Then ΔΔCt was obtained by subtracting the average ΔCt of non-treated sample from the treated sample average ΔCt. Relative quantification was calculated using the following formula. Relative quantification = 2^-averageΔΔCT. The 50% inhibitory concentrations (EC50) were calculated using the sigmoidal dose-response model in Microsoft XLfit.

Test [2] has as its system DENV-2. The test is described as above. In kind it is cell-based, dengue virus. As to conditions: Dengue virus, DENV2, Huh-7, 48 h, mean ± SD of 3 experiments. As for the experimental part:
as §1

For test [3], the system named is DENV-3. The description is as above. Format: cell-based, dengue virus. To be noted: Dengue virus, DENV3, Huh-7, 48 h, mean ± SD of 3 experiments. As for the experimental part:
as §1

Test [4] deals with DENV-4. The test is described as above. In kind it is cell-based, dengue virus. To be noted: Dengue virus, DENV4, Huh-7, 48 h, mean ± SD of 3 experiments. As for the experimental part: as §1
The nature of test [5]: Host immune response (plasma cytokines, whole blood transcripts) and virus sequence diversity in adult dengue patients. In kind it is in vivo, human. As for the experimental part: Plasma samples were collected for virological and immunological investigations every 12 hours, beginning immediately before commencement of treatment, during the next 6 study days and on one occasion on study day 7 and day 14 (virological markers) or day 7 and day 28 (immunological markers). Viremia was measured using a validated, internally controlled reverse-transcription polymerase chain reaction assay in a Good Clinical Laboratory Practice environment. The limit of detection was 357 copies/mL for DENV-1, 72 copies/mL for DENV-2, 357 copies/mL for DENV-3, and 720 copies/mL for DENV-4. The presence of NS1 in plasma was determined using the Platelia NS1 assay (Bio-Rad) and was performed according to the manufacturer's instructions. Plasma cytokine levels (interleukin 1β [IL-1β], IL-2, IL-4, IL-5, IL-6, IL-10, IL-12p70, IL-13, interferon γ [IFN-γ], and tumor necrosis factor α [TNF-α]) were measured using a Bio-Plex human cytokine assay (Bio-Rad) and a multiplex array reader (Luminex Systems, Bio-Plex workstation from Bio-Rad Laboratories) according to the manufacturer's instructions. Briefly, 50-μL plasma samples were incubated with monoclonal antibody coupled beads. […] Cytokine concentrations in samples were calculated by use of recombinant cytokines as standards and software provided by the manufacturer (Bio-Plex Manager). […]

On to `CC(C)C(=O)OC[C@@]1(N=[N+]=[N-])O[C@@H](n2ccc(N)nc2=O)[C@H](OC(=O)C(C)C)[C@@H]1OC(=O)C(C)C` [Balapiravir], for which the IC50 came out at 6.8 ± 1.1 µM in test [1] (DENV-1 strain FR28 (clinical isolate)); 7 ± 2 µM in test [1] (DENV-1 strain FR34 (clinical isolate)); 7.2 ± 2 µM in test [1] (DENV-1 strain FR37 (clinical isolate)); 7.4 ± 2.3 µM in test [1] (DENV-1 strain FR42 (clinical isolate)); 8.8 ± 1.2 µM in test [1] (DENV-1 strain Thsman); 3 ± 0.5 µM in test [2] (DENV-2 strain 32/0102 (clinical isolate), Huh-7 cells). In addition, the IC50 in test [2] (DENV-2 strain 32/0140 (clinical isolate), Huh-7 cells) turned out to be 1.9 ± 0.7 µM; in test [2] (DENV-2 strain 33/0051 (clinical isolate), Huh-7 cells), 2 ± 0.2 µM; in test [2] (DENV-2 strain 33/0178 (clinical isolate), Huh-7 cells), 2 ± 0.6 µM; in test [2] (DENV-2 strain Th36, Huh-7 cells), 4.6 ± 0.4 µM; in test [3] (DENV-3 strain 33/0072 (clinical isolate), Huh-7 cells), 3 ± 0.4 µM; in test [3] (DENV-3 strain 33/0096 (clinical isolate), Huh-7 cells) it was 3.4 ± 1.7 µM. Moreover, the IC50 in test [3] (DENV-3 strain 33/0177 (clinical isolate), Huh-7 cells) stood at 3.2 ± 0.9 µM; in test [3] (DENV-3 strain 33/0253 (clinical isolate), Huh-7 cells), 4.4 ± 0.9 µM; in test [3] (DENV-3 strain H87, Huh-7 cells) it was 3.7 ± 0.9 µM; in test [4] (DENV-4 strain H241, Huh-7 cells) it was 11 ± 1 µM; in test [4] (DENV-4 strain Phili/1567, Huh-7 cells), 2 ± 0.4 µM; in test [4] (DENV-4 strain Senga/DA, Huh-7 cells), 6.5 ± 0.9 µM. Also, the IC50 in test [4] (DENV-4 strain Venz/JQ, Huh-7 cells) was determined as 5.5 ± 1.3 µM. Further, the “kinetics of plasma cytokine concentrations and whole blood transcriptional profile” value in test [5] (balapiravir treatment versus placebo) is given as “not attenuated”. Moreover, the “treatment-related effects on whole blood gene transcript abundance” value in test [5] (baseline, study days 4 and 28, data not shown) is “no evidence of treatment-related effects”.
